Common to all, as to assay type: in vivo, mouse
The subject of series [1] is diet-induced obese (DIO) mice. The text has this: For studies on lipid handling in wildtype mice (Western mice), male C57Bl/6j mice (Jackson Laboratories) were fed a atherogenic Western diet (Research Diets D12079B), which is a high-cholesterol diet (0.21% gm %) with 41% kcal from fat, 43% kcal from carbohydrates, and 17% kcal from protein. For studies on energy metabolism in obese mice (DIO mice), male C57Bl/6j mice (Jackson Laboratories) were fed a diabetogenic diet (Research Diets D12331), which is a high-sucrose diet with 58% kcal from fat 25.5% kcal from carbohydrates, and 16.4% kcal from protein. Both dietary challenges began at 8 weeks of age. HFHSD and HFHCD mice were single- or group-housed on a 12:12-h light-dark cycle at 22° C. with free access to food and water. Mice were maintained under these conditions for a minimum of 16 weeks before initiation of pharmacological studies and were between the ages of 6 months to 12 months old. All injections and tests were performed during the light cycle. Compounds were administered in a vehicle of 1% Tween-80 and 1% DMSO and were given by daily subcutaneous injections at the indicated doses at a volume of 5 μl per g body weight. Mice were randomized and evenly distributed to test groups according to body weight and body composition. If ex vivo molecular biology/histology/biochemistry analyses were performed, the entire group of mice for each treatment was analyzed and scored in a blinded fashion.
(§1) Compounds were administered by repeated subcutaneous injections in the middle of the light phase at the indicated doses with the indicated durations. Co-administration of compounds was administered by single formulated injections. Body weights and food intake were measured every day or every other day after the first injection. All studies with wild-type mice were performed with a group size of n=8 or greater using mice on a C57B16j background.
Whole-body composition (fat and lean mass) was measured using nuclear magnetic resonance technology (EchoMRI).
(§2) Energy intake, energy expenditure, respiratory exchange ratio, and home-cage activity were assessed using a combined indirect calorimetry system (TSE Systems). O2 consumption and CO2 production were measured every 10 min for a total of up to 120 h (after 24 h of adaptation) to determine the respiratory quotient and energy expenditure after an initial treatment regimen. Food intake was determined continuously for the same time as the indirect calorimetry assessments by integration of scales into the sealed cage environment. Home-cage locomotor activity was determined using a multidimensional infrared light beam system with beams scanning the bottom and top levels of the cage, and activity being expressed as beam breaks.
Blood was collected at the indicated times from tail veins or after euthanasia using EDTA-coated microvette tubes (Sarstedt), immediately chilled on ice, centrifuged at 5,000 g and 4° C., and plasma was stored at −80° C. For […] (FPLC) of cholesterol distribution in different lipoprotein fractions, fresh plasma from each treatment group was pooled (n=6-8) and ran over two Superose 6 HR columns in tandem. Cholesterol levels in the collected fractions were determined by colorimetric assay. Plasma insulin and T3 were quantified by an ELISA assay (Ultrasenstive Mouse Insulin ELISA and Rodent T3 ELISA; Alpco). Plasma FGF21 was quantified by an ELISA assay (Mouse FGF21 ELISA; Millipore). Plasma cholesterol, extracted hepatic cholesterol, triglycerides, ALT, and AST were measured using enzymatic assay kits (Thermo Fisher). Plasma creatinine and blood urea nitrogen were measured using enzymatic assay kits (Abcam). Plasma free fatty acids were measured using enzymatic assay kits (Wako). All assays were performed according to the manufacturers' instructions. […]

Series [2] relates to DIO mice. Description: Glycemic control in DIO mice. Conditions: i.p. pyruvate 1.5 g kg-1. As for the experimental part: as §1
For assessment of glucose, pyruvate, and insulin tolerance during chronic treatment, the challenge tests were performed at least 24 hours after the last administration of compounds. […]
as §2, with “breaks. […]” for “breaks.”

Series [3] has as its system DIO mice. Description: Cardiac function and histology in DIO mice (echocardiography). As for the experimental part: After chronic treatment, HFHCD-fed or HFHSD-fed C57B16/j male mice (age) were sacrificed with CO2, body weight as well as heart weights and tibia length was taken during necropsy. Livers and whole hearts were embedded in paraffin using a vacuum infiltration processor TissueTEK VIP (Sakura). 3 μm thick slides were cut using a HMS35 rotatory microtome (Zeiss) and H & E staining was performed. For H & E staining, rehydration was done in a decreasing ethanol series, rinsing with tapwater, 2 min Mayers acid Hemalum, bluing in tapwater followed by lmin EosinY (both BioOptica). Dehydration was performed in increasing ethanol series, mounting with Pertex® (Medite GmbH) and coverslips (CarlRoth Chemicals). The slides were evaluated independently using a brightfield microscope (Axioplan, Zeiss). Photos were taken using the Hamamatsu-Nanozoomer HT2.0 in 1.25×, 5×. 20× and 40× magnification. The hepatic steatosis score is defined as the unweighted sum of the three individual scores for steatosis, lobular inflammation and ballooning degeneration. Steatosis is graded by the presence of fat vacuoles in liver cells according to the percentage of affected tissue (0: <5%; 1: 5-33%; 2: 33-66%; 3: >66%). Lobular inflammation is scored by overall assessment of inflammatory foci per 200× field (0: no foci; 1: <2 foci; 2: 2-4 foci; 3: >4 foci). The individual score for ballooning degeneration ranges from 0 (none), 1 (few cells) to 2 (many cells). Total scores range from 0 to 8 with scores <2 considered non-steatosis, 3 considered as borderline steatosis, 4-5 considered onset of steatosis, and >6 considered steatosis. Different to liver and heart, inguinal fat pad samples were embedded in paraffin using Leica embedding machine (EG1150 H) and cut in 5 μm sections using Leica Microtome (RM2255) to perform H&E staining. Samples were stained with hematoxyline for 4 minutes and eosinY for 2 minutes and fixed with Roti®-Histokitt (Carl Roth) before analysing them independently using Microscope Scope A.1 (Zeiss).
For transthoracic echocardiography, a Vevo2100 Imaging System (VisualSonics Inc., Toronto Canada) with a 30 MHz probe was used. All echocardiograms were performed on conscious animals to prevent anesthesia-related impairment of cardiac function as reported previously. Briefly, echocardiograms were obtained in parasternal long and short axis views. For accurate linear measurements of LV internal dimensions (LVID) and […] (LVPW) or septal (IVS) wall thicknesses, M-mode images of the heart in parasternal short-axis view at the level of the papillary muscle were acquired. Qualitative and quantitative measurements were made offline using analytical software (VisualSonics Inc.). Fractional shortening (FS) was calculated as FS %=[(LVIDd−LVIDs)/LVIDd]×100. Ejection fraction (EF) was calculated as EF %=100*((LVvolD−LVvolS)/LVvolD) with LVvol=((7.0/(2.4+LVID)*LVID^3). The corrected LV mass (LV MassCor) was calculated as LV MassCor=0.8(1.053*((LVIDd+LVPWd+IVSd)^3−LVIDd^3)). Heart rate and respiration rate were determined from M-mode tracings, using 3 consecutive intervals.
Gene expression profiling in the liver, iWAT, eWAT, BAT, and heart were performed following treatment of mice according to the treatment paradigms explained in the figure legends for each specific analsysis. For tissue collection, mice were fasted for 4 h and treated with compounds 2 h prior to tissue collection. Gene expression was profiled with quantitative real-time RT-PCR using either TaqMan single probes or with specifically-designed TaqMan low-density array cards. The relative expression of the selected genes was normalized to the reference gene hypoxanthine-guanine phosphoribosyltransferase (Hprt).

With `N[C@@H](Cc1cc(I)c(Oc2ccc(O)c(I)c2)c(I)c1)C(=O)O` [T3, 3,5,3′-triiodothryonine], in series [1] (DIO mice on HFHSD), the “home cage (ambulatory) activity” value was “significantly increased”. Moreover, the food intake result in series [1] (DIO mice on HFHSD, 7 days) is given as “increased”. Moreover, the body weight lowering result in series [1] (DIO mice on HFHSD, equimolar doses, 100 nmol kg-1 daily, 7 days) is given as “Neither glucagon nor T3 appreciably lowered body weight”. In addition, the whole-body energy expenditure result in series [1] (DIO mice on HFHSD, indirect calorimetry) is on record as “substantially increased”. Besides, in series [1] (mouse, in vivo), the “circulating levels of T3” value was “resulted in an increase” and the rectal temperature result is “increased rectal temperature”. For the same compound, in series [2], the “pyruvate tolerance (hepatic glucose output)” value is “substantially improved”. Further, in series [3] (histological profiling of the hearts), the “heart histology: cell death” value is “marked cell death was detectable”. In addition, in series [3] (mouse, in vivo), the “heart histology: thyrotoxic cardiomyopathy” value was “marked features of thyrotoxic cardiomyopathy”; the “whole heart expression of T3-sensitive genes (Dio2, Ucp2)” value is given as “directly increased”; the “whole heart expression of hypertrophic gene markers (Nppa, Nppb)” value is on record as “directly increased”.
